# Marks after values point to notes of the source that are not given here.
# Tests used:
# Assay type in all cases: binding, rabbit
# AAMU-Ab = assay: Competitive antigen ELISA, cross-reactivity of AAMU-Ab; settings: competitive antigen ELISA; 0 = absence of inhibition or inhibition no higher than 40% at the highest concentration tested (5×10^−3 M)
# Procedure: (§1) Competitive Antigen ELISA
# (§2) Buffers and water without additives are filtered through millipore filters and kept for 1 week. BSA, antibodies, Tween™ 20 and horse radish peroxidase conjugates are added to these buffers and water just prior to use. Urine samples are usually collected 4 hours after drinking a cup of coffee (instant or brewed with approximately 100 mg of caffeine per cup) and stored at −80° C. The urine samples are diluted 10 times with sodium phosphate buffer (620 mosm, pH 7.50) and are subsequently diluted with water to give concentrations of AAMU and 1X no higher than 3×10^−6 M in the ELISA. All the pipettings are done with an eight-channel pipette, except those of the antibody and sample solutions. Starting with the last well, 100 μL of a carbonate buffer (100 mM, pH 9.6) containing 2.5 μg mL-1 antibodies are added to each well. After 90 min. at room temperature, the wells are washed three times with 100 mL of TPB: isotonic sodium phosphate buffer (310 mosm, pH 7.50) containing 0.05% Tween™ 20.
# (§3) After the initial wash, unoccupied sites are blocked by incubation for 90 min. at room temperature with 100 μL TBP containing 3% BSA. The wells are washed four times with 100 […] TPB. […] The microplate is gently shaken with an orbital shaker at room temperature for 3-4 hours. The wells are washed three times with 100 μL TPB containing 1% BSA and three times with water containing 0.05% Tween™ 20. To the washed plate is added 150 μL of a substrate buffer composed of citric acid (25 mM) and sodium phosphate dibasic buffer (50 mM, pH 5.0) containing 0.06% hydrogen peroxide and 0.04% o-phenylenediamine hydrochloride.
# as §2, with “were” for “are”, “They were” for “The urine samples are”, “mL^−1” for “mL-1”, “was pipetted.” for “are added to each well.”, “μL” for “mL”
# (§4) After the initial wash, unoccupied sites were blocked by incubation for 90 min. at room temperature with 100 μL TBP containing 3% BSA. The wells were washed four times with 100 μL TPB. […] The microplate was gently shaken with an orbital shaker at room temperature for 3-4 hours. The wells were washed three times with 100 μL with TPB containing 1% BSA and three times with water containing 0.05% Tween™ 20. To the washed plate was added 150 μL of a substrate buffer composed of citric acid (25 mM) and sodium phosphate dibasic buffer (50 mM, pH 5.0) containing 0.06% hydrogen peroxide and 0.04% o-phenylenediamine hydrochloride. After 20 min. at room temperature with shaking, the reaction was stopped with 50 μL of 2.5 N HCl.
# (§5) The cross reactivities of AAMU-Ab and 1X-Ab were tested using a wide variety of caffeine metabolites and structural analogs (Table 2 below).
# 1X-Ab = assay: Competitive antigen ELISA, cross-reactivity of 1X-Ab; settings: for % Cross-Reaction 1X-Ab: competitive antigen ELISA, 0 = absence of inhibition or inhibition no higher than 40% at the highest concentration tested (5×10^−3 M)
# Procedure: as §1, §2, §3
# as §2, with “were” for “are”, “They were” for “The urine samples are”, “mL^−1” for “mL-1”, “was pipetted.” for “are added to each well.”, “μL” for “mL”
# as §4, §5
# Caffeine-Ab = assay: Competitive antigen ELISA, antibody specificity of caffeine-Ab; settings: hypothesized ideal antibody specificity; 0 = no inhibition or no higher than 40% at 5×10^−3 M
# Procedure: as §1
# (§6) BSA, antibodies, Tween™ 20 and horse radish peroxidase are added to buffers and water just prior to use. Urine samples are usually collected four hours after drinking a cup of coffee (instant or brewed with approximately 100 mg of caffeine per cup) and stored at −20° C. as 1-mL aliquots in 1.5-mL microtubes. For the ELISA, the urine samples are diluted with isotonic sodium phosphate buffer, pH 7.5 (310 mosM) to give concentrations of caffeine, 1.7-DMX and 1,7-DMU no higher than 3×10^−6 M in the microtiter plate wells. Wells of the ELISA plate are washed with a Nunc-Immuno wash 12 washer. Sixteen milliliters of a solution of 6.6 μg ml^−1 of isolated IgG antibodies is prepared in a 100 mM sodium carbonate buffer, pH 9.6, and 150 μL of this solution is pipetted in each well of a microtiter plate using a eight channel pipet (Brinkmann Transferpette™-8 50-200 μL) and 200 μL Flex tips from Brinkmann). After coating the wells with antibodies at 4° C. for 20 hours, the wells are washed 3 times with the isotonic sodium phosphate buffer containing 0.05% Tween™ 20 (IPBT) and properly drained by inverting the plate and absorbing the liquid on to a piece of paper towel. Thirty milliliters of a solution of a IPBT solution containing 1% BSA is prepared and 150 μL of this solution is pipetted in each well using a eight channel pipet (Brinkmann Transferpet-te™-8 50-200 μL) and 200 μL yellow tips (Sarstedt yellow tips for P200 Gilson Pipetman). After 3 hours at room temperature, the wells are washed 3 times with IPBT solution and drained. Samples of 400 μL for determination of caffeine, 1,7-DMX and 1,7-DMU are prepared in 1.5-mL microtubes using Sarstedt yellow tips and a P200 Gilson Pipetman. Then, 200 μL of each sample are pipetted in duplicate in a Falcon 96-well microtest tissue culture plate according to the pattern shown in FIG. 23, using Sarstedt yellow tips and a P200 Gilson Pipetman. Using an eight channel pipet (Brinkmann Transferpette™-8 50-200 μL) and changing the tips of the eight channel pipet (200 μL Flex tips from Brinkmann) at each row, 150 μL of samples are transferred in the corresponding wells of a 96-well ELISA microtiter plate coated with antibodies. After the addition of the samples, the microtiter plates are covered and left standing at room temperature for 2 h. While the plate is left standing the substrate buffer without the hydrogen peroxide and o-phenylenediamine hydrochloride is prepared (25 mM citric acid and 50 mM sodium phosphate dibasic buffer, pH 5.0). The microtiter plate is washed 3 times with the IPBT solution and 3 times with a 0.05% Tween 20 solution and drained. Then, 50 […] of hydrogen peroxide and 40 mg of o-phenylenediamine are added to the substrate buffer. One hundred fifty microliters (150 μL) of the substrate buffer solution is then added to each well using a eight channel pipet (Brinkmann Transferpette™-8 50-200 μL) and 200 μL Flex tips (Brinkmann). The microtiter plate is covered and shaken for 25-30 min at room temperature and the enzymatic reaction is stopped by adding 50 μL/well of a 2.5 N HCl solution using an eight channel pipet (Brinkmann Transferpette™-8 50-200 μL) and 200 μL Flex tips (Brinkmann).
# 1,7-DMX-Ab = assay: Competitive antigen ELISA, antibody specificity of 1,7-DMX-Ab; settings: hypothesized ideal antibody specificity; 0 = no inhibition or no higher than 40% at 5×10^−3 M
# Procedure: as §1, §6
# 1,7-DMU-Ab = assay: Competitive antigen ELISA, antibody specificity of 1,7-DMU-Ab; settings: hypothesized ideal antibody specificity; 0 = no inhibition or no higher than 40% at 5×10^−3 M
# Procedure: as §1, §6
SMILES,% Cross-Reaction AAMU-Ab (AAMU-Ab) [%],% Cross-Reaction 1X-Ab (1X-Ab) [%],% Cross-reaction Caffeine-Ab (Caffeine-Ab) [%],"% Cross-reaction 1,7-DMX-Ab (1,7-DMX-Ab)","% Cross-reaction 1,7-DMU-Ab (1,7-DMU-Ab) [%]","IC50 (1X-Ab; read-out: concentration required for 50% inhibition in the competitive antigen ELISA, 1X-Ab) [µM]"
"Cn1c(=O)c2c(ncn2C)n(C)c1=O [1,3,7-Trimethyl Xanthine (Caffeine), 1,3,7-trimethylxanthine]",0,0,100,0^a %,0,–
"Cn1c(=O)c2c([nH]c(=O)n2C)n(C)c1=O [1,3,7-Trimethyluric acid]",–,–,0,0%,0,–
"Cn1c(=O)c2[nH]cnc2n(C)c1=O [1,3-Dimethyl Xanthine (Theophylline), 1,3-Dimethyl Xanthine]",0,0.2,0,0%,0,–
"Cn1c(=O)c2[nH]c(=O)[nH]c2n(C)c1=O [1,3-Dimethyluric acid]",–,–,0,0%,0,–
"Cn1c(=O)[nH]c2ncn(C)c2c1=O [1,7-Dimethyl Xanthine (Paraxanthine), 1,7-dimethylxanthine]",0,0.5,0,100%,0,–
"Cn1c(=O)[nH]c2[nH]c(=O)n(C)c2c1=O [1,7-Dimethyluric acid, 1,7-dimethyluric acid]",0,0,0,0%,100,–
"Cn1c(=O)[nH]c2nc[nH]c2c1=O [1-Methyl Xanthine (1X), 1-methylxanthine]",0,100,0,0%,0,10
"Cn1c(=O)[nH]c2[nH]c(=O)[nH]c2c1=O [1-Methyluric acid, 1-methyluric acid]",0,11,0,0%,0,–
"Cn1cnc2c1c(=O)[nH]c(=O)n2C [3,7-Dimethyl Xanthine (Theobromine), 3,7-Dimethyl Xanthine]",0,0,0,0%,0,–
"Cn1c(=O)[nH]c(=O)c2c1[nH]c(=O)n2C [3,7-Dimethyluric acid]",–,–,0,0%,0,–
Cn1c(=O)[nH]c(=O)c2[nH]cnc21 [3-Methyl Xanthine],0,0,0,0%,0,–
Cn1c(=O)[nH]c(=O)c2[nH]c(=O)[nH]c21 [3-Methyluric acid],–,–,0,0%,0,–
"CC(=O)Nc1c(N)n(C)c(=O)n(C)c1=O [5-Acetamino-6-amino-1,3-dimethyluracil]",0,0,0,0%,0,–
CC(=O)Nc1c(N)[nH]c(=O)[nH]c1=O [5-Acetamino-6-amino-uracil],0.6,0,0,0%,0,–
Cn1c(=O)[nH]c2[nH]c(=O)[nH]c(=O)c21 [7-Methyluric acid],–,–,0,0%,0,–
